One assay concerns the target A. baumannii PBP2 (Acinetobacter baumannii, UniProt D0C8Z9). The assay can be described thus: Bocillin-FL competition binding via gel filtration, A. baumannii PBP2. A digest of the protocol:
(§1)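 Enzyme was pre-incubated with rising inhibitor concentrations, then Bocillin-FL was added and incubated 15 minutes more. Bound probe was separated by gel filtration and fluorescence read. EC50 came from fitting fraction of PBP labelled versus inhibitor concentration to a Hill equation with ymin, ymax and n.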

Another assay concerns P. aeruginosa CDC-0110. Description: microbe, parasite or virus in culture. Type of assay: cell-based. The conditions noted are these: Pseudomonas aeruginosa, CDC0110, read-out: Minimum inhibitory concentration, P. aeruginosa CDC-0110.
In another assay the test system is A. baumannii CDC-0036. The assay can be described thus: microbe, parasite or virus in culture. Type of assay: cell-based. The conditions noted are these: Acinetobacter baumannii, CDC0036, read-out: MIC, A. baumannii CDC-0036.
A further assay deals with A. baumannii ATCC 19606. Description: microbe, parasite or virus in culture. Type of assay: cell-based. The conditions noted are these: Acinetobacter baumannii, ATCC19606, read-out: MIC, A. baumannii ATCC 19606.
A further assay has as its target T1, A. baumannii PBP1a (Acinetobacter baumannii, UniProt A0ABX6CK30).
T1 sequence (A0ABX6CK30 1-851): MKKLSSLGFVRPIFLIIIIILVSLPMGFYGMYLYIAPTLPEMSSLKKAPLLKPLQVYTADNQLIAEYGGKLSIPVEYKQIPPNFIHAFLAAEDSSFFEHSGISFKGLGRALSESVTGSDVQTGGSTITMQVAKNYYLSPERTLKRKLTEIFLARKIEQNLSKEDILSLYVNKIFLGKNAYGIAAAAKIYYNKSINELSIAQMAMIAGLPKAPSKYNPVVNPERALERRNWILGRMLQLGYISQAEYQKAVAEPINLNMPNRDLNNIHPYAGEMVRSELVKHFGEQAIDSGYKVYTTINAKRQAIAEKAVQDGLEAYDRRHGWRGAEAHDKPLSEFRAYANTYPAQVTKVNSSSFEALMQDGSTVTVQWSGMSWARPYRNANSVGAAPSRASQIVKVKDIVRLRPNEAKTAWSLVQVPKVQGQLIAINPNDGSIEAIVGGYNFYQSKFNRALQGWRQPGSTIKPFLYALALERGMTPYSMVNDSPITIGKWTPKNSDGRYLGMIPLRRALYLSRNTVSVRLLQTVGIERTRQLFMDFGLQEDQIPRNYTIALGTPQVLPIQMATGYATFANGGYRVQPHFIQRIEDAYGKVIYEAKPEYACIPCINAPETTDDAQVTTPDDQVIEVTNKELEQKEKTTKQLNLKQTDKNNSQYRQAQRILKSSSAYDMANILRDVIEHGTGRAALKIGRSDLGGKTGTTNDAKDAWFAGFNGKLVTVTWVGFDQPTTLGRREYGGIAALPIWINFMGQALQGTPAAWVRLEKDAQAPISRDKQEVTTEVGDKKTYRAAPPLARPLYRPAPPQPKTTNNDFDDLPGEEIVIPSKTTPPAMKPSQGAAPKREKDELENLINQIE
Description: Bocillin-FL competition binding via gel filtration, A. baumannii PBP1a. The conditions noted are these: competition binding assay using Bocillin-FL via gel filtration; read-out: A. baumannii PBP1a Potency. The method, boiled down:
as §1

Data on 1 compound can be found in patent publication US20240270762A1, “PENICILLIN-BINDING PROTEIN INHIBITORS” (priority 2021, published 2024).

Structures are written as SMILES. pEC50: −log10 of the molar value. Values after ≈ are worked out from the molar mass of the structure shown.

A. baumannii PBP2, sequence (D0C8Z9 whole entry): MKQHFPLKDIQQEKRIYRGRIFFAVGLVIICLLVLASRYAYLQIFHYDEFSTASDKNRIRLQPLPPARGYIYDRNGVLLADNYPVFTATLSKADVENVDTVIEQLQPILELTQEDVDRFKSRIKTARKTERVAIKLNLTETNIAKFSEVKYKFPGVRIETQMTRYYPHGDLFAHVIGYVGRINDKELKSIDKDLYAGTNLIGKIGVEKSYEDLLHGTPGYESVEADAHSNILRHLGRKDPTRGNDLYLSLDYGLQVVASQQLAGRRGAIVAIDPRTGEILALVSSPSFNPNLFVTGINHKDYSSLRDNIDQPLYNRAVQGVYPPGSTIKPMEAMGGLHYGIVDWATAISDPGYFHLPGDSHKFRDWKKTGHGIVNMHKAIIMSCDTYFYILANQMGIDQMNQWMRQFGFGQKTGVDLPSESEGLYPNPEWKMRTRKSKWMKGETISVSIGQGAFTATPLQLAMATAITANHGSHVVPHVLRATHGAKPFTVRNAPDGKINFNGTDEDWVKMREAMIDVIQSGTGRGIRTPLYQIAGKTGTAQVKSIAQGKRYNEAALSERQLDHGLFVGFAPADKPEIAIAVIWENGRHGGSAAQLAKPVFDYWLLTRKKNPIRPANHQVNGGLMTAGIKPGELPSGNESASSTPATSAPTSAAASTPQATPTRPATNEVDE

`O=C(O)c1c(F)ccc2c1OB(O)[C@@H](NC(=O)C(NC(=O)N1CCN(C3CCN(C(=O)Nc4cccc(O)c4F)CC3)C(=O)C1=O)c1cc(F)c(O)c(O)c1Cl)C2` (stereo partly drawn) [Example 478, (3R)-3-(2-(2-chloro-5-fluoro-3,4-dihydroxyphenyl)-2-(4-(1-((2-fluoro-3-hydroxyphenyl)carbamoyl)piperidin-4-yl)-2,3-dioxopiperazine-1-carboxamido)acetamido)-7-fluoro-2-hydroxy-3,4-dihydro-2H-benzo[e][1,2]oxaborinine-8-carboxylic acid]: the pEC50 at A. baumannii PBP2 and at A. baumannii PBP1a was 4.30 to 5.00 in each case. Further, the MIC in the assay on P. aeruginosa CDC-0110 is 2 to 4 µg/mL (≈ 2.44 to 4.88 µM); with A. baumannii CDC-0036, 2 to 4 µg/mL (≈ 2.44 to 4.88 µM); in the assay on A. baumannii ATCC 19606, below 1 µg/mL.
